In patent US8722731B2, “Furanyl compounds and the use thereof” (NovoMedix, LLC, priority 2010, dated 2014):

Tests used:
[1] = tested on: MDA-MB-361; assay: IC50 cell-based assay, adherent cells, MDA-MB-361; settings: Homo sapiens, Breast, Brain met Her2-neu + ER +, 72 hours, read-out: IC50 of Compounds in Adherent Cell Types
Experimental: (§1) In one embodiment, the IC50s of the compounds provided herein were determined in cell-based assays using adherent cells. In one embodiment, the activity of the compounds provided herein were determined in a cell-based assay using the triple negative breast cancer cell line MDA-MB-468. In one embodiment, the adherent cells used in the cell-based assays may be a cell type selected from Table 1. In one embodiment, the cell-based assay may be carried out as provided herein. On day 0, cells were seeded at 20,000 cells per well in 100 µL of media into individual wells of a 96-well tissue culture plate. The next day, compounds were diluted to twice the desired final concentration and added in 100 µL of media for a final volume of 200 μL. Standard solutions for each compound were prepared at 1000× concentration in DMSO. The highest concentration was 30 mM. Serial 1:1 dilutions were made from there for a 6- or 9-point curve (e.g., 30 mM, 15 mM, 7.5 mM, etc). Compounds were then diluted 1:500 in media, and 100 µL of the resulting solution was added to each well for a final dilution of 1:1000. Each concentration of compound was tested in triplicate. Cells were incubated at 37° C. with 5% CO2. After 72 hours, 20 μL of CellTiter 96 Aqueous One Solution Cell Proliferation Assay (Promega) was added to each well. Cells were placed back in the incubator, and the absorbance at 490 nm was read after 2-3 hours. The concentration of compound that decreased the number of metabolically active cells by 50% was determined and reported as the IC50. “Percent Viability” was determined by subtracting the average background value (media only) and expressed as a ratio to the average value obtained from cells treated with only DMSO.

[2] = tested on: MDA-MB-415; assay: IC50 cell-based assay, adherent cells, MDA-MB-415; settings: Homo sapiens, Breast, adenocarcinoma, 72 hours, read-out: IC50 of Compounds in Adherent Cell Types
Experimental: (§2) In one embodiment, the IC50s of the compounds provided herein were determined in cell-based assays using adherent cells. In one embodiment, the activity of the compounds provided herein were determined in a cell-based assay using the triple negative breast cancer cell line MDA-MB-468. In one embodiment, the adherent cells used in the cell-based assays may be a cell type selected from Table 1. In one embodiment, the cell-based assay may be carried out as provided herein. On day 0, cells were seeded at 20,000 cells per well in 100 µL of media into individual wells of a 96-well tissue culture plate. The next day, compounds were diluted to twice the desired final concentration and added in 100 µL of media for a final volume of 200 μL. Standard solutions for each compound were prepared at 1000× concentration in DMSO. The highest concentration was 30 mM. Serial 1:1 dilutions were made from there for a 6- or 9-point curve (e.g., 30 mM, 15 mM, 7.5 mM, etc). Compounds were then diluted 1:500 in media, and 100 µL of the resulting solution was added to each well for a final dilution of 1:1000. […] Cells were placed back in the incubator, and the absorbance at 490 nm was read after 2-3 hours. […] “Percent Viability” was determined by subtracting the average background value (media only) and expressed as a ratio to the average value obtained from cells treated with only DMSO.

[3] = tested on: MDA-MB-435; assay: IC50 cell-based assay, adherent cells, MDA-MB-435; settings: Homo sapiens, Breast, carcinoma—ductal, 72 hours, read-out: IC50 of Compounds in Adherent Cell Types
Experimental: as §2

[4] = tested on: 1937; assay: IC50 cell-based assay, adherent cells, 1937; settings: Breast, triple neg, 72 hours, read-out: IC50 of Compounds in Adherent Cell Types
Experimental: as §1

[5] = tested on: HEK-293; assay: IC50 cell-based assay, adherent cells, HEK-293; settings: Homo sapiens, HEK293, Kidney, embryonic, 72 hours, read-out: IC50 of Compounds in Adherent Cell Types
Experimental: as §2

[6] = tested on: Hep-G2; assay: IC50 cell-based assay, adherent cells, Hep-G2; settings: Homo sapiens, HepG2, Liver, hepatocellular carcinoma, 72 hours, read-out: IC50 of Compounds in Adherent Cell Types
Experimental: as §1

[7] = tested on: Mia PaCa-2; assay: IC50 cell-based assay, adherent cells, Mia PaCa-2; settings: Homo sapiens, Pancreas, carcinoma, 72 hours, read-out: IC50 of Compounds in Adherent Cell Types
Experimental: as §2

[8] = tested on: BxPc-3; assay: IC50 cell-based assay, adherent cells, BxPc-3; settings: Homo sapiens, Pancreas, adenocarcinoma, 72 hours, read-out: IC50 of Compounds in Adherent Cell Types
Experimental: as §2

[9] = tested on: MS1; assay: IC50 cell-based assay, adherent cells, MS1; settings: Mus musculus, MS-1, Pancreas, angiosarcoma, 72 hours, read-out: IC50 of Compounds in Adherent Cell Types
Experimental: as §2

[10] = tested on: XPA-1; assay: IC50 cell-based assay, adherent cells, XPA-1; settings: Pancreas, 72 hours, read-out: IC50 of Compounds in Adherent Cell Types
Experimental: as §2

[11] = tested on: Du145; assay: IC50 cell-based assay, adherent cells, Du145; settings: Homo sapiens, DU-145, Prostate, carcinoma, 72 hours, read-out: IC50 of Compounds in Adherent Cell Types
Experimental: as §2

[12] = tested on: Molt-4; assay: IC50 cell-based assay, suspension cells, Molt-4; settings: Homo sapiens, Leukemia, ALL, read-out: IC50 of Compounds in Suspension Cell Types
Experimental: (§3) In one embodiment, the IC50s of the compounds provided herein were determined in cell-based assays using adherent cells. In one embodiment, the activity of the compounds provided herein were determined in a cell-based assay using the triple negative breast cancer cell line MDA-MB-468. In one embodiment, the adherent cells used in the cell-based assays may be a cell type selected from Table 1. In one embodiment, the cell-based assay may be carried out as provided herein. On day 0, cells were seeded at 20,000 cells per well in 100 µL of media into individual wells of a 96-well tissue culture plate. The next day, compounds were diluted to twice the desired final concentration and added in 100 µL of media for a final volume of 200 μL. […] Cells were placed back in the incubator, and the absorbance at 490 nm was read after 2-3 hours. […] “Percent Viability” was determined by subtracting the average background value (media only) and expressed as a ratio to the average value obtained from cells treated with only DMSO.
(§4) In one embodiment, the IC50s of the compounds provided herein were determined in cell-based assays using suspension cells. In one embodiment, the activity of the compounds provided herein were determined in a cell-based assay using the JeKo-1 cell line (mantle cell lymphoma) or the Pfeiffer cell line (diffuse large B-cell lymphoma). […]

[13] = tested on: K562; assay: IC50 cell-based assay, suspension cells, K562; settings: Homo sapiens, Leukemia, CML, read-out: IC50 of Compounds in Suspension Cell Types
Experimental: as §3, §4

[14] = tested on: SEMK; assay: IC50 cell-based assay, suspension cells, SEMK; settings: Leukemia, read-out: IC50 of Compounds in Suspension Cell Types
Experimental: as §3, §4

[15] = tested on: SupB15; assay: IC50 cell-based assay, suspension cells, SupB15; settings: Homo sapiens, SUP-B15, Leukemia, B-ALL (Philadelphia chromosome+), read-out: IC50 of Compounds in Suspension Cell Types
Experimental: as §1
In one embodiment, the IC50s of the compounds provided herein were determined in cell-based assays using suspension cells. In one embodiment, the activity of the compounds provided herein were determined in a cell-based assay using the JeKo-1 cell line (mantle cell lymphoma) or the Pfeiffer cell line (diffuse large B-cell lymphoma). In one embodiment, the suspension cells used in the cell-based assays may be a cell type selected from Table 2. Assays with suspension cells were similar except that 40,000-60,000 cells were added to each well and compounds were added immediately after cell plating.

Row | IC50 [1] [µM] | IC50 [2] [µM] | IC50 [3] [µM] | IC50 [4] [µM] | IC50 [6] [µM] | IC50 [7] [µM] | IC50 [8] [µM] | IC50 [9] [µM] | IC50 [10] [µM] | IC50 [11] [µM] | IC50 [12] [µM] | IC50 [13] [µM] | IC50 [14] [µM] | IC50 [15] [µM] | SMILES | IC50 [5] [µM]
1 | < 5 | < 5 | < 5 | < 5 | 5 to 10 | < 5 | 5 to 10 | < 5 | 5 to 10 | 5 to 10 | < 5 | < 5 | < 5 | < 5 | O=C(Nc1cc(C(F)(F)F)cc(C(F)(F)F)c1)c1cc(-c2ccccc2)oc1C(F)(F)F [Compound 1, 5-Phenyl-2-trifluoromethyl-furan-3-carboxylic acid (3,5-bis-trifluoromethyl-phenyl)-amide] | < 5
2 | < 5 |  |  | < 5 | 5 to 10 |  |  |  |  |  |  |  |  | < 5 | O=C(Nc1cc(C(F)(F)F)cc(C(F)(F)F)c1)c1cc(-c2ccc(Cl)cc2)oc1C(F)(F)F [Compound 2, 5-(4-Chlorophenyl)-N-(3,5-bistrifluoromethylphenyl)-2-trifluoromethylfuran-3-carboxamide] | 
